In PubChem BioAssay (NCI):
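Cultured in 96-well plates, cells were exposed to test compound for 48 hours across five concentrations. TGI: concentration producing complete growth inhibition.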

How the values were obtained:
Experiment in all cases: DTP human tumour cell line panel, 48 h
[1] = system: SK-MEL-28 melanoma
[2] = system: SW-620 colon
[3] = system: OVCAR-4 ovarian
[4] = system: KM12 colon
[5] = system: IGROV1 ovarian
[6] = system: SK-MEL-5 melanoma
[7] = system: NCI-H522 lung
[8] = system: SNB-75 CNS
[9] = system: T-47D breast
[10] = system: OVCAR-5 ovarian
[11] = system: SF-295 CNS
[12] = system: A549 NSCLC
[13] = system: UO-31 renal
[14] = system: NCI-H460 lung
[15] = system: COLO 205 colon
[16] = system: NCI/ADR-RES ovarian
[17] = system: RXF 393 renal
[18] = system: HCC-2998 colon
[19] = system: NCI-H226 lung
[20] = system: ACHN renal
[21] = system: MDA-MB-231 breast
[22] = system: SK-MEL-2 melanoma
[23] = system: UACC-62 melanoma
[24] = system: RPMI-8226 leukemia
[25] = system: HT29 colon
[26] = system: HS 578T breast
[27] = system: CAKI-1 renal
[28] = system: HCT-116 colon
[29] = system: SF-268 CNS
[30] = system: MOLT-4 leukemia
[31] = system: SF-539 CNS
[32] = system: MDA-MB-435
[33] = system: TK-10 renal
[34] = system: MDA-N
[35] = system: SN12C renal
[36] = system: EKVX NSCLC
[37] = system: MCF7 breast
[38] = system: HOP-62 NSCLC
[39] = system: U251 CNS
[40] = system: OVCAR-8 ovarian
[41] = system: NCI-H23 lung
[42] = system: HCT-15 colon
[43] = system: A498 renal
[44] = system: M14 melanoma
[45] = system: UACC-257 melanoma
[46] = system: BT-549 breast
[47] = system: HOP-92 NSCLC
[48] = system: OVCAR-3 ovarian
[49] = system: LOX IMVI melanoma
[50] = system: SNB-19 CNS
[51] = system: DU-145 prostate
[52] = system: PC-3 prostate
[53] = system: SK-OV-3 ovarian
[54] = system: CCRF-CEM leukemia
[55] = system: SR leukemia
[56] = system: HL-60(TB) leukemia
[57] = system: 786-0 renal
[58] = system: K-562 leukemia
[59] = system: MALME-3M melanoma

C1CSCCSCCSCCSC1
TGI [1]: > 100 µM
TGI [2]: > 100 µM
TGI [3]: > 100 µM
TGI [4]: > 100 µM
TGI [5]: > 100 µM
TGI [6]: > 100 µM
TGI [7]: > 100 µM
TGI [8]: > 100 µM
TGI [9]: > 100 µM
TGI [10]: > 100 µM
TGI [11]: > 100 µM
TGI [12]: > 100 µM
TGI [13]: > 100 µM
TGI [14]: > 100 µM
TGI [15]: > 100 µM
TGI [16]: > 100 µM
TGI [17]: > 100 µM
TGI [18]: > 100 µM
TGI [19]: > 100 µM
TGI [20]: > 100 µM
TGI [21]: > 100 µM
TGI [22]: > 100 µM
TGI [23]: > 100 µM
TGI [24]: > 100 µM
TGI [25]: > 100 µM
TGI [26]: > 100 µM
TGI [27]: > 100 µM
TGI [28]: > 100 µM
TGI [29]: > 100 µM
TGI [30]: > 100 µM
TGI [31]: > 100 µM
TGI [32]: > 100 µM
TGI [33]: > 100 µM
TGI [34]: > 100 µM
TGI [35]: > 100 µM
TGI [36]: > 100 µM
TGI [37]: > 100 µM
TGI [38]: > 100 µM
TGI [39]: > 100 µM
TGI [40]: > 100 µM
TGI [41]: > 100 µM
TGI [42]: > 100 µM
TGI [43]: > 100 µM
TGI [44]: > 100 µM
TGI [45]: > 100 µM
TGI [46]: > 100 µM
TGI [47]: > 100 µM
TGI [48]: > 100 µM
TGI [49]: > 100 µM
TGI [50]: > 100 µM
TGI [51]: > 100 µM
TGI [52]: > 100 µM
TGI [53]: > 100 µM

c1ccc(N=C(Nc2ccccc2)N2CCCC2)cc1
TGI [1]: > 100 µM
TGI [2]: > 100 µM
TGI [3]: > 100 µM
TGI [4]: > 100 µM
TGI [54]: > 100 µM
TGI [5]: > 100 µM
TGI [6]: > 100 µM
TGI [7]: > 100 µM
TGI [8]: > 100 µM
TGI [9]: > 100 µM
TGI [10]: > 100 µM
TGI [11]: > 100 µM
TGI [12]: > 100 µM
TGI [13]: > 100 µM
TGI [14]: > 100 µM
TGI [15]: > 100 µM
TGI [55]: > 100 µM
TGI [16]: > 100 µM
TGI [56]: > 100 µM
TGI [19]: > 100 µM
TGI [20]: > 100 µM
TGI [22]: > 100 µM
TGI [23]: > 100 µM
TGI [24]: > 100 µM
TGI [25]: > 100 µM
TGI [26]: > 100 µM
TGI [27]: > 100 µM
TGI [28]: > 100 µM
TGI [29]: > 100 µM
TGI [30]: > 100 µM
TGI [32]: > 100 µM
TGI [33]: > 100 µM
TGI [34]: > 100 µM
TGI [57]: > 100 µM
TGI [35]: > 100 µM
TGI [36]: > 100 µM
TGI [37]: > 100 µM
TGI [38]: > 100 µM
TGI [39]: > 100 µM
TGI [40]: > 100 µM
TGI [41]: > 100 µM
TGI [42]: > 100 µM
TGI [44]: > 100 µM
TGI [45]: > 100 µM
TGI [58]: > 100 µM
TGI [46]: > 100 µM
TGI [47]: > 100 µM
TGI [48]: > 100 µM
TGI [59]: > 100 µM
TGI [49]: > 100 µM
TGI [50]: > 100 µM
TGI [51]: > 100 µM
TGI [52]: > 100 µM
TGI [53]: > 100 µM

CCCSc1ccc2[nH]c(/N=C/c3ccccc3)cc2c1
TGI [1]: 90.7 µM
TGI [2]: > 100 µM
TGI [3]: 88.2 µM
TGI [54]: 64.4 µM
TGI [5]: > 100 µM
TGI [6]: 20.4 µM
TGI [7]: 46.2 µM
TGI [8]: > 100 µM
TGI [9]: > 100 µM
TGI [10]: > 100 µM
TGI [13]: > 100 µM
TGI [15]: 44.5 µM
TGI [55]: 27.8 µM
TGI [16]: 47.9 µM
TGI [17]: 42.7 µM
TGI [20]: > 100 µM
TGI [22]: 32.2 µM
TGI [23]: 35 µM
TGI [24]: 48.3 µM
TGI [25]: > 100 µM
TGI [26]: 62.1 µM
TGI [27]: > 100 µM
TGI [28]: 39.8 µM
TGI [29]: 49.2 µM
TGI [30]: 55.9 µM
TGI [31]: 46.3 µM
TGI [32]: > 100 µM
TGI [34]: 62.6 µM
TGI [57]: 40.1 µM
TGI [35]: 45.7 µM
TGI [36]: 76.2 µM
TGI [40]: 56.2 µM
TGI [41]: > 100 µM
TGI [42]: > 100 µM
TGI [43]: 60.1 µM
TGI [44]: > 100 µM
TGI [45]: 57 µM
TGI [58]: 38.8 µM
TGI [46]: 97.2 µM
TGI [47]: 76.9 µM
TGI [48]: 60.3 µM
TGI [59]: 55.7 µM
TGI [49]: 32.5 µM
TGI [51]: > 100 µM
TGI [52]: > 100 µM

CCCCCCCCCCCCN1[C@H]2CCC[C@H]2C(O)[C@@H]2CCC[C@@H]21 (stereo partly drawn)
TGI [1]: > 100 µM
TGI [2]: > 100 µM
TGI [3]: > 100 µM
TGI [4]: > 100 µM
TGI [54]: > 100 µM
TGI [5]: > 100 µM
TGI [6]: > 100 µM
TGI [8]: > 100 µM
TGI [9]: 88.2 µM
TGI [10]: > 100 µM
TGI [12]: > 100 µM
TGI [14]: > 100 µM
TGI [15]: > 100 µM
TGI [55]: > 100 µM
TGI [16]: > 100 µM
TGI [56]: > 100 µM
TGI [17]: > 100 µM
TGI [18]: > 100 µM
TGI [19]: > 100 µM
TGI [20]: > 100 µM
TGI [21]: > 100 µM
TGI [22]: > 100 µM
TGI [23]: > 100 µM
TGI [24]: > 100 µM
TGI [25]: > 100 µM
TGI [26]: > 100 µM
TGI [27]: > 100 µM
TGI [28]: > 100 µM
TGI [29]: > 100 µM
TGI [30]: > 100 µM
TGI [32]: > 100 µM
TGI [34]: > 100 µM
TGI [57]: > 100 µM
TGI [35]: > 100 µM
TGI [38]: > 100 µM
TGI [39]: > 100 µM
TGI [40]: > 100 µM
TGI [41]: > 100 µM
TGI [42]: > 100 µM
TGI [43]: > 100 µM
TGI [44]: > 100 µM
TGI [45]: > 100 µM
TGI [58]: > 100 µM
TGI [46]: > 100 µM
TGI [47]: > 100 µM
TGI [48]: > 100 µM
TGI [49]: > 100 µM
TGI [50]: > 100 µM
TGI [51]: > 100 µM
TGI [52]: > 100 µM
TGI [53]: > 100 µM
